These are literature values, as cited in US8999393B1, “Sustained release formulations of lorazepam” (Edgemont Pharmaceuticals LLC, priority 2013, dated 2015).

The conditions of data set [1]: according to the package insert.

Turning to `O=C1Nc2ccc(Cl)cc2C(c2ccccc2Cl)=NC1O` (racemic) [lorazepam, ±7-chloro-5-(2-chlorophenyl)-1,3-dihydro-3-hydroxy-2H-1,4-benzodiazepin-2-one], the solubility in water result is on record as “almost insoluble”. Also, the “half-life in human plasma” value in data set [1] is listed as “about 12 hours”.
